In ChEMBL document CHEMBL4028802, “DILIrank: the largest reference drug list ranked by the risk for developing drug-induced liver injury in humans” (Drug Discov Today, 2016):

Assays:
[1] = species on record: Homo sapiens; experiment: Liver toxicity in human assessed as induction of drug-induced liver injury by measuring verified drug-induced liver injury concern status
[2] = species on record: Homo sapiens; experiment: Liver toxicity in human assessed as induction of drug-induced liver injury by measuring severity class index
Throughout, for DILI severity class: key of the grades not given here.

Row | Structure (SMILES) | DILI_Concern [1] | DILI_severity_class [2]
1 | N=C(N)NCCN1CCCCCCC1 [GUANETHIDINE] | No-Dili-Concern | 0
2 | CC(=O)[C@H]1CC[C@H]2[C@@H]3CCC4=CC(=O)CC[C@]4(C)[C@H]3CC[C@]12C [PROGESTERONE] | Less-Dili-Concern | 2
3 | N[C@@H](C(=O)N[C@@H]1C(=O)N2C(C(=O)O)=C(Cl)CS[C@H]12)c1ccccc1 [CEFACLOR ANHYDROUS] | Less-Dili-Concern | 3
4 | CCOC(=O)Nc1ccc2c(c1)N(C(=O)CCN1CCOCC1)c1ccccc1S2 [MORICIZINE] | Ambiguous-Dili-Concern | 5
5 | CO/N=C(\C(=O)N[C@@H]1C(=O)N2C(C(=O)[O-])=C(C[N+]3(C)CCCC3)CS[C@H]12)c1csc(N)n1 | Less-Dili-Concern | 3
6 | CC1=C(/C=C/C(C)=C/C=C/C(C)=C\C(=O)O)C(C)(C)CCC1 [ISOTRETINOIN] | Most-Dili-Concern | 5
7 | COCCc1ccc(OCC(O)CNC(C)C)cc1 (stereo not given) [METOPROLOL] | Less-Dili-Concern | 5
8 | Cc1cccc(C)c1NC(=O)C1CCCCN1C (stereo not given) [MEPIVACAINE] | No-Dili-Concern | 0
9 | CN1CCN(CCCN2c3ccccc3Sc3ccc(C(F)(F)F)cc32)CC1 [TRIFLUOPERAZINE] | Ambiguous-Dili-Concern | 2
10 | CCOC(=O)[C@H](CCc1ccccc1)N[C@@H](C)C(=O)N1[C@H](C(=O)O)C[C@@H]2CCC[C@@H]21 | Less-Dili-Concern | 7
11 | CC(C)(C)NCC(O)COc1cccc2c1CC(O)C(O)C2 (stereo not given) [NADOLOL] | Ambiguous-Dili-Concern | 3
12 | C[C@H]1O[C@@H](O[C@H]2[C@@H](O)C[C@H](O[C@H]3[C@@H](O)C[C@H](O[C@H]4CC[C@@]5(C)[C@H](CC[C@@H]6[C@@H]5C[C@@H](O)[C@]5(C)[C@@H](C7=CC(=O)OC7)CC[C@]65O)C4)O[C@@H]3C)O[C@@H]2C)C[C@H](O)[C@@H]1O [DIGOXIN] | No-Dili-Concern | 0
13 | COc1ccc2[nH]c([S+]([O-])Cc3ncc(C)c(OC)c3C)nc2c1 (stereo not given) [OMEPRAZOLE] | Less-Dili-Concern | 4
14 | C1CNCCN1.C[C@]12CC[C@@H]3c4ccc(OS(=O)(=O)O)cc4CC[C@H]3[C@@H]1CCC2=O [ESTROPIPATE] | Ambiguous-Dili-Concern | 2
15 | OC(CCN1CCCC1)(c1ccccc1)C1CCCCC1 (stereo not given) [PROCYCLIDINE] | No-Dili-Concern | 0
16 | CN1CCN(C(=O)O[C@H]2c3nccnc3C(=O)N2c2ccc(Cl)cn2)CC1 [ESZOPICLONE] | Ambiguous-Dili-Concern | 3
17 | COc1ccc2cc(CCC(C)=O)ccc2c1 [NABUMETONE] | Ambiguous-Dili-Concern | 3
18 | CONC(=N)c1ccc(-c2ccc(-c3ccc(C(=N)NOC)cc3)o2)cc1 [PAFURAMIDINE] | Most-Dili-Concern | 8
19 | O=C1Cc2cc(CCN3CCN(c4nsc5ccccc45)CC3)c(Cl)cc2N1 [ZIPRASIDONE] | Less-Dili-Concern | 3
20 | CCN1CCN(C(=O)N[C@@H](C(=O)N[C@@H]2C(=O)N3C(C(=O)O)=C(CSc4nnnn4C)CS[C@H]23)c2ccc(O)cc2)C(=O)C1=O [CEFOPERAZONE] | Less-Dili-Concern | 3
21 | CC(=O)N(O)CCCCCNC(=O)CCC(=O)N(O)CCCCCNC(=O)CCC(=O)N(O)CCCCCN [DEFEROXAMINE] | Less-Dili-Concern | 0
22 | COc1ccc([C@@H]2Sc3ccccc3N(CCN(C)C)C(=O)[C@@H]2OC(C)=O)cc1 [DILTIAZEM] | Most-Dili-Concern | 4
23 | Cn1c(=O)c2[nH]cnc2n(C)c1=O.O [THEOPHYLLINE] | No-Dili-Concern | 0

Row | Structure (SMILES) | DILI_Concern [1] | DILI_severity_class [2]
24 | CC1(C)C(/C=C/C=C/C=C/C=C2/N(CCCCS(=O)(=O)[O-])c3ccc4ccccc4c3C2(C)C)=[N+](CCCCS(=O)(=O)[O-])c2ccc3ccccc3c21.[Na+] [INDOCYANINE GREEN] | No-Dili-Concern | 0
25 | C=C[C@H]1C[N@@]2CC[C@H]1C[C@@H]2[C@@H](O)c1ccnc2ccc(OC)cc12 [QUINIDINE] | Less-Dili-Concern | 3
26 | C=C1/C(=C\C=C2/CCC[C@]3(C)[C@@H]([C@H](C)/C=C/[C@H](C)C(C)C)CC[C@@H]23)C[C@@H](O)C[C@@H]1O [DOXERCALCIFEROL] | Ambiguous-Dili-Concern | 3
27 | Cc1c(OCC(F)(F)F)ccnc1C[S+]([O-])c1nc2ccccc2[nH]1 (stereo not given) [LANSOPRAZOLE] | Less-Dili-Concern | 3
28 | CCCc1nc(C(C)(C)O)c(C(=O)OCc2oc(=O)oc2C)n1Cc1ccc(-c2ccccc2-c2nnn[nH]2)cc1 [OLMESARTAN MEDOXOMIL] | Ambiguous-Dili-Concern | 4
29 | CN1C(=O)CC(C)(c2ccccc2)C1=O (stereo not given) [METHSUXIMIDE] | No-Dili-Concern | 0
30 | N#Cc1ccc(C(c2ccc(C#N)cc2)n2cncn2)cc1 [LETROZOLE] | Less-Dili-Concern | 2
31 | CC[N+](C)(C)c1cccc(O)c1 [EDROPHONIUM] | No-Dili-Concern | 0
32 | C[C@H](Cc1cc2c(c(C(N)=O)c1)N(CCCO)CC2)NCCOc1ccccc1OCC(F)(F)F [SILODOSIN] | Ambiguous-Dili-Concern | 3
33 | Cc1c(OCC(F)(F)F)ccnc1C[S@@+]([O-])c1nc2ccccc2[nH]1 [DEXLANSOPRAZOLE] | Less-Dili-Concern | 4
34 | CCCCCCCCNC(C)C(O)c1ccc(SC(C)C)cc1 (stereo not given) [SULOCTIDIL] | Most-Dili-Concern | 8
35 | C=CCC1(C(C)C#CCC)C(=O)N=C(O)N(C)C1=O (stereo not given) [METHOHEXITAL] | Ambiguous-Dili-Concern | 3
36 | Oc1ccc2c3c1O[C@H]1[C@@H](O)CC[C@@]4(O)[C@@H](C2)N(CC2CCC2)CC[C@]314 [NALBUPHINE] | No-Dili-Concern | 0
37 | Nc1ccc(S(=O)(=O)c2ccc(N)cc2)cc1 [DAPSONE] | Less-Dili-Concern | 3
38 | CC[C@H](C)[C@H](NC(=O)[C@H](CCC(=O)O)NC(=O)[C@H](CO)NC(=O)[C@@H](NC(=O)[C@@H](N)CO)C(C)C)C(=O)N[C@@H](CCC(N)=O)C(=O)N[C@@H](CC(C)C)C(=O)N[C@@H](CCSC)C(=O)N[C@@H](Cc1cnc[nH]1)C(=O)N[C@@H](CC(N)=O)C(=O)N[C@@H](CC(C)C)C(=O)NCC(=O)N[C@@H](CCCCN)C(=O)N[C@@H](Cc1cnc[nH]1)C(=O)N[C@@H](CC(C)C)C(=O)N[C@@H](CC(N)=O)C(=O)N[C@@H](CO)C(=O)N[C@@H](CCSC)C(=O)N[C@@H](CCC(=O)O)C(=O)N[C@@H](CCCN=C(N)N)C(=O)N[C@H](C(=O)N[C@@H](CCC(=O)O)C(=O)N[C@@H](Cc1c[nH]c2ccccc12)C(=O)N[C@@H](CC(C)C)C(=O)N[C@@H](CCCN=C(N)N)C(=O)N[C@@H](CCCCN)C(=O)N[C@@H](CCCCN)C(=O)N[C@@H](CC(C)C)C(=O)N[C@@H](CCC(N)=O)C(=O)N[C@@H](CC(=O)O)C(=O)N[C@H](C(=O)N[C@@H](Cc1cnc[nH]1)C(=O)N[C@@H](CC(N)=O)C(=O)N[C@@H](Cc1ccccc1)C(=O)O)C(C)C)C(C)C [TERIPARATIDE] | No-Dili-Concern | 0
39 | O=C1Nc2ccccc2C1(c1ccc(O)cc1)c1ccc(O)cc1 [OXYPHENISATINE] | Most-Dili-Concern | 8
40 | Clc1ccccc1C(c1ccccc1)(c1ccccc1)n1ccnc1 [CLOTRIMAZOLE] | Less-Dili-Concern | 3
41 | Cn1nnc2c(C(N)=O)ncn2c1=O [TEMOZOLOMIDE] | Less-Dili-Concern | 4
42 | [H]/N=C(/N)N[C@H]1[C@H](O)[C@@H](O)[C@H](O[C@@H]2O[C@@H](C)[C@](O)(C=O)[C@H]2O[C@@H]2O[C@@H](CO)[C@H](O)[C@@H](O)[C@@H]2NC)[C@@H](N/C(N)=N\[H])[C@@H]1O [STREPTOMYCIN] | No-Dili-Concern | 0
43 | COc1cc(C(=O)NS(=O)(=O)c2ccccc2C)ccc1Cc1cn(C)c2ccc(NC(=O)OC3CCCC3)cc12 [ZAFIRLUKAST] | Most-Dili-Concern | 8
44 | CN(C)CC[C@@H](c1ccc(Br)cc1)c1ccccn1 [DEXBROMPHENIRAMINE] | No-Dili-Concern | 0
45 | CCOC(=O)[C@H](CCc1ccccc1)N[C@@H](C)C(=O)N1Cc2cc(OC)c(OC)cc2C[C@H]1C(=O)O [MOEXIPRIL] | Ambiguous-Dili-Concern | 3
